# From ChEMBL document CHEMBL5604063, “ASAP - DENV-2 NS2B-NS3 protease fluorescence dose response” (2024)
# Values joined by “and” are separate entries in the source; they are usually repeats but may differ in a detail not shown here. Equal values may be shown once.
# Experiments:
# [1] = target: T1, Genome polyprotein (dengue virus type 2, UniProt P29990); type: functional, Thailand/16681/1984
# [2] = target: T1, Genome polyprotein; type: functional, Thailand/16681/1984; remark: listed apart in the source
# T1 sequence (P29990 1346-1475 limits assumed): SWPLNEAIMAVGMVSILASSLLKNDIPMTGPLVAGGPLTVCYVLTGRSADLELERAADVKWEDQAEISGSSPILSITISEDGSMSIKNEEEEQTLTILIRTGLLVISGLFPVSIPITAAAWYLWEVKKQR
# T1 sequence (P29990 1476-2093 limits assumed): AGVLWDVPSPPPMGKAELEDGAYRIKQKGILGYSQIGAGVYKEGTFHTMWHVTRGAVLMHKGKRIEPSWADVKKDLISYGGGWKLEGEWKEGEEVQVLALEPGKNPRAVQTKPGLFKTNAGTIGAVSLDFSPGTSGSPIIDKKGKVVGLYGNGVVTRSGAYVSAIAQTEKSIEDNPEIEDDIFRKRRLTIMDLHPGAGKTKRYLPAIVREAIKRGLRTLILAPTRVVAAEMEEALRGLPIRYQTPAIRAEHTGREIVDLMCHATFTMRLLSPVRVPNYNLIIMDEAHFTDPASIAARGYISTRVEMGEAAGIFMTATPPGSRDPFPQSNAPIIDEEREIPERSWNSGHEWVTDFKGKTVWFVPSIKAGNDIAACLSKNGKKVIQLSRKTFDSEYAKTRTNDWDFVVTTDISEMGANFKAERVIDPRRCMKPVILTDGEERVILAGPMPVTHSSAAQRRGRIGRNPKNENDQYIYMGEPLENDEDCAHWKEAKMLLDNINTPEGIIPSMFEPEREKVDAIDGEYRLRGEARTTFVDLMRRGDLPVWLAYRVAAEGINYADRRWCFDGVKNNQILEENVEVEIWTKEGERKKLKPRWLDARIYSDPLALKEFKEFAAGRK
SMILES,IC50 [1],IC50 [2]
Brc1csc(CNCCc2nnc[nH]2)c1,> 99.5 µM,> 100 µM
NCc1cccc(NC(=O)c2cc(Cl)cc3c2cnn3CC2CC2)c1,> 99.5 µM,> 100 µM
NCc1cccc(NC(=O)c2cc(Cl)cc(Cl)c2)c1,> 99.5 µM,> 100 µM
C[C@H]1CCC[C@H](C(=O)Nc2cccc(CN)c2)O1,> 99.5 µM,> 100 µM
NCc1cccc(NC(=O)[C@H]2C[C@@H](C(F)(F)F)C[C@@H](C(F)(F)F)C2)c1,> 99.5 µM,> 100 µM
Cc1ccc(S(=O)(=O)N2Cc3ccccc3C[C@@H](C(=O)Nc3cccc(CN)c3)C2)cc1,75.2 µM,> 100 µM
O=C(N[C@H]1[C@H]2CCCCC[C@H]2[C@H]1C(=O)Nc1cccc(C2CCNCC2)c1)OCc1ccccc1,17.9 µM and 53 µM,32.7 µM
NCCc1ccc(NC(=O)c2cc(Cl)cc(CN)c2)cc1,> 99.5 µM,> 100 µM
COCC=Cc1cccc([C@@H](NC(=O)OCc2ccccc2)C(=O)Nc2cccc(CN)c2)c1,56.9 µM,> 100 µM
NCc1cccc(NC(=O)c2cc(N)cc(Cl)c2)c1,> 99.5 µM,> 100 µM
C[C@H]1C[C@@H](C(=O)Nc2cccc(CN)c2)CC(=O)N1,> 99.5 µM,> 100 µM
c1cncc(CN2CC[C@H](NCc3c[nH]c4ccccc34)C2)c1,> 99.5 µM,> 100 µM
O=C(Nc1cc(Cl)cc(C(=O)Nc2cccc(-c3cc[nH]n3)c2)c1)OCc1ccccc1,> 99.5 µM,> 100 µM
NCc1cccc(NC(=O)C2CCNCC2)c1,> 99.5 µM,> 100 µM
OCCCCCc1nc(-c2ccc(Br)o2)no1,> 99.5 µM,> 100 µM
CCn1ncc2c(C(=O)Nc3cccc(CN)c3)cc(C)nc21,> 99.5 µM,> 100 µM
NCCc1cc(Cl)cc(C(=O)Nc2cccc(CN)c2)c1,> 99.5 µM,> 100 µM
Cn1cc([C@@H]2C[C@H](C(=O)Nc3cccc(CN)c3)CC(=O)N2)cn1,> 99.5 µM,> 100 µM
NCc1cccc(NC(=O)[C@@H](NC(=O)OCc2ccccc2)c2cccc(-c3ccc(CN)cc3F)c2)c1,> 99.5 µM,> 100 µM
O=C(NCCc1nc2ccccc2[nH]1)c1cc2ccc(F)cc2s1,> 99.5 µM,> 100 µM
Cc1cc(C(=O)Nc2cccc(CN)c2)nc(C)n1,> 99.5 µM,> 100 µM

SMILES,IC50 [1],IC50 [2]
Cc1cc(C(=O)Nc2cccc(CN)c2)c2c(C)nn(CC(=O)NC(C)C)c2n1,> 99.5 µM,> 100 µM
N[C@@H](CCO)c1cccc(NC(=O)c2cc(Cl)cc(NC(=O)OCc3ccccc3)c2)c1,> 99.5 µM,> 100 µM
CN(C)[C@@H]1CCC[C@@H](C(=O)Nc2cccc(CN)c2)C1,> 99.5 µM,> 100 µM
C[C@@H](N)c1cccc(NC(=O)[C@H]2[C@H]3CCCCC[C@H]3[C@H]2NC(=O)OCc2ccccc2)c1,13.5 µM and 13.8 µM,29 µM
Cc1cc(C(=O)Nc2cccc(CN)c2)cc(O)n1,> 99.5 µM,> 100 µM
Cc1ccc(S(=O)(=O)CCCn2ccc3sccc3c2=O)cc1,> 99.5 µM,> 100 µM
COc1ccc(-c2cccc([C@@H](NC(=O)OCc3ccccc3)C(=O)Nc3cccc(CN)c3)c2)cn1,> 99.5 µM,> 100 µM
c1coc(CSCc2nc(-c3nc[nH]n3)no2)c1,> 99.5 µM,> 100 µM
NCc1cccc(NC(=O)[C@@H]2[C@H](N)[C@@H]3CCCCC[C@@H]32)c1,> 99.5 µM,> 100 µM
Cn1cc(NC(=O)c2cc(Cl)cc(NC(=O)OCc3ccccc3)c2)cn1,> 99.5 µM,> 100 µM
NCc1cccc(CNC(=O)[C@H]2[C@H]3CCCCC[C@H]3[C@H]2NC(=O)OCc2ccccc2)c1,14.4 µM and 63.2 µM and 44.4 µM,80.3 µM
NCc1cccc(NC(=O)[C@@H]2CCC[C@]3(CCNC3=O)C2)c1,> 99.5 µM,> 100 µM
COC(=O)c1cc(NC(=O)OCc2ccccc2)cc(C(=O)Nc2cccc(CN)c2)c1,> 99.5 µM,> 100 µM
NCc1cccc(NC(=O)c2c(F)c(Cl)cc(NC(=O)OCc3ccccc3)c2F)c1,> 99.5 µM,> 100 µM
CN(C)CCc1ccc(NC(=O)c2cc(Cl)cc(NC(=O)OCc3ccccc3)c2)cc1,> 99.5 µM,> 100 µM
O=C(Nc1cc(Cl)cc(C(=O)Nc2nccc([C@H]3CCCCN3)n2)c1)OCc1ccccc1,> 99.5 µM,> 100 µM
CC(C)[C@@H]1CC[C@@H](C)C[C@H]1C(=O)Nc1cccc(CN)c1,> 99.5 µM,> 100 µM
NCc1cccc(NC(=O)c2cc(Cl)cc(C(N)=O)c2)c1,> 99.5 µM,> 100 µM
COc1ccc2nc(C)cc(C(=O)Nc3cccc(CN)c3)c2c1,> 99.5 µM,> 100 µM
NCc1cccc(NC(=O)[C@@]23CCC[C@H](C2)N3C(=O)OCc2ccccc2)c1,> 99.5 µM,> 100 µM
CN(C)Cc1ccc(NC(=O)c2cc(Cl)cc(NC(=O)OCc3ccccc3)c2)cc1,> 99.5 µM,> 100 µM
